Source: paper PMC11489133, “Obicetrapib exhibits favorable physiochemical and pharmacokinetic properties compared to previous cholesteryl ester transfer protein inhibitors: An integrated summary of results from non‐human primate studies and clinical trials” (Pharmacology Research & Perspectives, 2024)
“And” between values parts separate entries of the source, which are not always exact repeats. Equal entries are not always repeated. Where two headings read alike, the source gives them in different places.

What was measured:
[1] = absorption, metabolism and excretion study of a single 10 mg dose of 14C-obicetrapib (NCT02408055, TA‐8995‐07); assay type: in vivo, humans
Protocol: Figure 2 illustrates the obicetrapib (TA‐8995) M1 detected above the LLOQ (>1% radioactivity) in human plasma expressed as the percent radioactivity profiled. A study (NCT02408055) was conducted in healthy male participants (n = 6) to assess the absorption, metabolism, and excretion of a single dose of 10 mg of ^14C‐obicetrapib (TA‐8995‐07 CSR, NewAmsterdam Pharma). One of the objectives of the study was to determine the chemical structure of ^14C‐obicetrapib M1 that represent ≥10% of total radioactivity in plasma. The participants received 10 mL ^14C‐obicetrapib oral suspension, containing 10 mg and 100 μCi of ^14C‐obicetrapib in the fasted state. Clinical samples for analysis were selected based upon the levels of radioactivity present as determined by liquid scintillation counting and were stored at below −50°C (nominally −80°C) when not in use. Plasma samples from the participants were sequentially extracted with acetonitrile at five time points. The resulting extracts were concentrated by evaporation and reconstituted in mobile phase HPLC prior to analysis by radio‐HPLC. All samples were analyzed by liquid scintillation counting to evaluate the recovery of radioactivity. The profiles of the radiolabeled components in each sample of plasma were determined by HPLC analysis with off‐line radio‐detection. Selected samples from each matrix were then further analyzed by high‐resolution mass spectrometry to investigate the identity of M1. In plasma, the predominant metabolite component was unchanged obicetrapib (~79% of total drug‐related exposure), and the most abundant plasma M1 were M1 and P9 of which each accounted for ~4% of total exposure (Figure 2). No significant differences in the metabolite profiles were observed across the samples obtained from the six participants (TA‐8995‐07 CSR, NewAmsterdam Pharma).

[2] = pH 7.4; cited from earlier work
[3] = Phase II trials of obicetrapib, integrated summary of post-treatment elimination; assay type: in vivo, humans
Description: The Phase II trials of obicetrapib described herein include the TA‐8995: Its Use in Patients with Mild Dyslipidaemia (TULIP)[10] study, the Randomized Study of Obicetrapib as an Adjunct to Statin Therapy (ROSE),[11] the Study to Evaluate the Effect of Obicetrapib in Combination with Ezetimibe as an Adjunct to High‐Intensity Statin Therapy (ROSE2),[12] and A Dose‐Finding Study in Japanese Patients to Evaluate the Effect of Obicetrapib as an Adjunct to Stable Statin Therapy (TA‐8995‐203).[13]

[4] = Phase I food effect trial on obicetrapib bioavailability (TA‐8995‐09); assay type: in vivo, humans; settings: for Cmax / AUC / t max: both sexes, human, plasma, oral, 10 mg; for t max: read-out: t max, median (minimum, maximum)
Protocol: (§1) The PK parameters and the effect of food on the bioavailability of obicetrapib in humans have been examined in both Phase I[9] (TA‐8995‐09 CSR, NewAmsterdam Pharma) and Phase II trials.[10], [11], [12], [13] The trials were performed in accordance with the Declaration of Helsinki, Good Clinical Practice Guidelines, and applicable regulatory requirements. Approval was obtained from the relevant ethical review boards for each site. All volunteers provided written informed consent prior to participation. PK parameters were determined using WinNonlin software, version 4.1 or higher (Pharsight/Certara Corporation, USA). Concentrations of obicetrapib were summarized for each treatment group using descriptive statistics.
This was an open‐label, randomized, two‐sequence, two‐period, two‐treatment crossover study conducted to evaluate the effect of food on the bioavailability of 10 mg obicetrapib. Thirty healthy adult males and females were randomized to treatment and data were available for 23 participants. In Treatment Period I, participants received a single 10 mg dose of obicetrapib after an overnight fast. In Treatment Period II, participants received a single 10 mg dose of obicetrapib at 30 min following the start of a standardized high‐fat, high‐calorie breakfast that was preceded by an overnight fast. Blood samples were collected at pre‐dose and at intervals over 336 h after dosing in each treatment period. The interval between doses was 49 days. The half‐life of obicetrapib was expected to be less than 6 days; therefore, it was anticipated that 49 days would be well beyond five half‐lives and an adequate washout period (TA‐8995‐09 CSR, NewAmsterdam Pharma).

[5] = ROSE2 Phase II trial, plasma concentrations of obicetrapib; assay type: in vivo, humans; settings: for % Change in Plasma Level: Week 12 to Week 16, mean (SD); for concentration at 12 weeks / concentration at 16 weeks: both sexes, human, plasma, oral, read-out: Mean (SD) Plasma Level; for concentration at 12 weeks: Week 12 (EOT), on‐treatment PK population; for concentration at 16 weeks: Week 16, four weeks after the end of treatment
Protocol: as §1
ROSE2 (NCT05266586) was a placebo‐controlled, double‐blind, randomized trial conducted to evaluate the efficacy, safety, and tolerability of obicetrapib or obicetrapib plus ezetimibe as an adjunct to high‐intensity statin therapy.[12] An exploratory endpoint of the trial included assessing the plasma concentrations of obicetrapib during treatment and 4 weeks after the end of treatment. […] One hundred nineteen participants (mean age: 62.6 years; 63.9% male; 84.5% White; mean BMI: 30.9 kg/m^2) were enrolled at 18 clinical research sites in the United States and randomized in a 1:1:1 ratio to one of three treatment groups: (1) placebo; (2) obicetrapib monotherapy (one 10 mg obicetrapib tablet plus one placebo capsule for ezetimibe); or (3) combination therapy (one 10 mg obicetrapib tablet plus one 10 mg ezetimibe capsule). The participants were instructed to take their assigned treatment orally with water once daily at approximately the same time each morning for the 12‐week treatment period. After randomization, participants returned to the clinical research site during Weeks 4 and 12 (end of treatment) for safety and PK assessments. Participants also completed a follow‐up visit 4 weeks after the end of treatment (Week 16) for final safety and PK assessments. Of the 119 participants randomized, 97 (81.5%) were included in an on‐treatment analysis, which excluded participants with plasma concentrations of obicetrapib <100 ng/mL at either or both Week 4 and Week 12.[12] The on‐treatment PK population (n = 57) included all randomized participants in the mITT population assigned to the two obicetrapib dose groups who had sufficient blood samples collected for valid estimation of PK parameters and excluded participants with plasma concentrations of obicetrapib <100 ng/mL at either or both Week 4 and Week 12. Fifty‐six (98.2%) participants in the on‐treatment PK population were included in the 4‐week post‐end of treatment PK analysis (TA‐8995‐202 CSR, NewAmsterdam Pharma).

[6] = Obicetrapib 10 mg + ezetimibe 10 mg + high‐intensity statin
[7] = Obicetrapib 10 mg + high‐intensity statin

CCOC(=O)N1c2ccc(C(F)(F)F)cc2C(N(Cc2cc(C(F)(F)F)cc(C(F)(F)F)c2)c2ncc(OCCCC(=O)O)cn2)CC1CC (stereo not drawn) [Obicetrapib]
percent radioactivity profiled in human plasma ([1]; n = 6 individuals, 24 h AUC pools, Figure 2): up to 92.8%
share of total drug‐related exposure in plasma ([1]; single 10 mg 14C‐obicetrapib, fasted, healthy males n = 6): ~ 79%
cLogDpH7.4 [2]: 4.9
decrease of plasma levels of obicetrapib ([3]; 15 weeks post‐treatment): 98.5%
decrease of plasma levels of obicetrapib ([3]; four weeks post‐treatment): 92.2%
increase of peak and overall systemic exposure (AUC, C max) under fed compared to fasted conditions ([4]; 10 mg dose, high‐fat meal): ~ 1.6 fold and 1.6 fold
least‐squares geometric mean of fed versus fasted ratio, AUC0‐t ([4]; 10 mg single dose): 154.9%
least‐squares geometric mean of fed versus fasted ratio, AUC0‐∞ ([4]; 10 mg single dose): 155.4%
least‐squares geometric mean of fed versus fasted ratio, C max ([4]; 10 mg single dose): 158.5%
AUC(0‐t), LSGM Ratio (90% CI) (Fed vs. Fasted) ([4]; 10 mg single dose, n = 23): 155 (130, 184)
AUC(0‐∞), LSGM Ratio (90% CI) (Fed vs. Fasted) ([4]; 10 mg single dose, n = 23): 155 (129, 187)
C max, LSGM Ratio (90% CI) (Fed vs. Fasted) ([4]; 10 mg single dose, n = 23): 159 (126, 199)
Cmax ([4]; 10 mg single dose, Fasted, n = 23): 140 ng/mL
AUC ([4]; 10 mg single dose, Fasted, n = 23, read-out: AUC(0‐t), LS GM (converted)): 12400 ng·h/mL
AUC ([4]; 10 mg single dose, Fasted, n = 23, read-out: AUC(0‐∞), LS GM (converted)): 16600 ng·h/mL
Cmax ([4]; 10 mg single dose, Fed (high‐fat, high‐calorie breakfast), n = 23): 222 ng/mL
AUC ([4]; 10 mg single dose, Fed, n = 23, read-out: AUC(0‐t), LS GM (converted)): 19200 ng·h/mL
AUC ([4]; 10 mg single dose, Fed, n = 23, read-out: AUC(0‐∞), LS GM (converted)): 25800 ng·h/mL
t max ([4]; 10 mg single dose, fasted): 5 h
t max ([4]; 10 mg single dose, fed): 5.5 h
% Change in Plasma Level [5, 6]: −92.2 (3.7) %
% Change in Plasma Level [5, 7]: −93.7 (3.3) %
% Change in Plasma Level ([5]; Obicetrapib 10 mg + high‐intensity statin, listed as obicetrapib): −93.7%
concentration at 12 weeks [5, 6]: 360 ng/mL
concentration at 16 weeks [5, 6]: 28.7 ng/mL
concentration at 12 weeks [5, 7]: 387 ng/mL
concentration at 16 weeks [5, 7]: 24.5 ng/mL
